Test [1] addresses T1, GluN1(T648A)/GluN2B receptors (Rattus norvegicus, UniProt P35439+Q00960, T648A).
T1 construct: expressed in transfected cells; host or cells: HEK293
Kind of test: Whole-cell patch-clamp of GluN1(T648A)/GluN2B receptor responses in HEK293 cells. The class given is cell-based. Conditions: for sensitivity of spontaneous currents (absence of glutamate and glycine) to antagonist: 100 μM. An excerpt:
(§1) Human embryonic kidney (HEK293) cells were transfected with expression vectors containing: GluN1–1a (GenBank accession number U08261)[52]; GluN2B (GenBank accession number M91562); GluN1-4a(F484A), (generous gift from Dr. J. J. Woodward)[53] (Smothers & Woodward, 2009); GluN3A (generous gift from Dr. S. A. Lipton)[54] (GenBank accession number NM_138546); GluN1ΔN with deleted 354 amino acids in the NTD (32 to 386); GluN1ΔC with an introduced stop codon in 838 of the CTD GluN2BΔN) with deleted 354 amino acids in the NTD (32 to 386); GluN2BΔC with an introduced stop codon in 844 of the CTD[55]; GluR0 (GenBank accession number Synechocystis PCC 6803) (generous gift from Dr. M. L. Mayer)[18]; and green fluorescent protein (GFP) (pQBI 25, Takara, Tokyo, Japan) genes, as described previously. The Quick-Change site-directed mutagenesis kit (Agilent Technologies, Santa Clara, CA, USA) was used to generate specific point mutations in the M1/M3 region according to the manufacturer’s instructions using manually designed primers purchased from Sigma. Modified DNA plasmids were transformed into competent XL10-Gold E.coli cells, positive clones were selected, and isolated DNA was sequenced. […] All mutations were verified by DNA sequencing (Macrogen, Seoul, Korea or SeQme, Dobris, Czech Republic). The amino acids are numbered according to the full-length protein, including the signal peptide, with the initiating methionine as 1.
(§2) Experiments were performed 24–48 hrs after transfection on cells transfected with GluN1/GluN2B/GFP plasmids. Whole-cell voltage-clamp recordings from HEK293 cells were made with a patch-clamp amplifier (Axopatch 200B; Axon Instruments, Inc., Foster City, CA) after a capacitance and series resistance (<10 MΩ) compensation of 80–90%.
(§3) Patch pipettes (3–5 MΩ) were filled with a solution containing (in mM): 120 gluconic acid, 15 CsCl, 10 BAPTA, 10 HEPES, 3 MgCl2, 1 CaCl2, and 2 ATP-Mg salt (pH-adjusted to 7.2 with CsOH). When GluR0 receptor responses were studied, intracellular solution contained (in mM): 120 gluconic acid, 15 KCl, 10 BAPTA, 10 HEPES, 3 MgCl2, 1 CaCl2, and 2 ATP-Mg salt (pH-adjusted to 7.2 with KOH). Extracellular solution (ECS) contained the following (in mM): 160 NaCl, 2.5 KCl, 10 HEPES, 10 glucose, 0.2 EDTA, and 0.7 CaCl2 (pH-adjusted to 7.3 with NaOH). Glycine (10 μM), an NMDAR co-agonist, was present in the control and test solutions. All (PA-S and PA-A) solutions were made from freshly prepared 20 mM PA-S and 5 mM PA-A stock in dimethyl sulfoxide (DMSO). The final dilution to ECS was made at 50 °C and followed by 1 min sonication (SONOREX DIGITEC DT 100/H, BADELIN electronic, Berlin, Germany). The same concentration of DMSO was added to all extracellular solutions. Drug applications were made with a microprocessor-controlled multibarrel fast-perfusion system. Changes in the glutamate-induced current in HEK293 cells transfected by GluN1/GluN2B subunits were used to estimate the rate of solution exchange around the cell. Standard ECS was switched to the ECS diluted by water (50%) during glutamate application. The osmolarity was adjusted by sucrose to match the standard ECS. Glutamate (1 mM), glycine (10 μM) and pH was maintained constant in both solutions. The solution exchange rate was estimated to be τ = 4.3 ± 0.3 ms (n = 6) for lifted cells and τ = 12.0 ± 0.9 ms (n = 6) for the attached cells.
The IC50 was determined from a single dose of a steroid using the formula [drawing 1] where I is the relative degree of inhibition and [steroid] is the steroid concentration used. Calculations of IC50 were made assuming 100% inhibition at saturating steroid concentration this is valid for both PA-S and PA-A[12][13]. […]
In general terms: The patch-clamp technique gives a direct electrical read-out from membranes.

Test [2] has as its target T2, GluN1(A649T)/GluN2B receptors (Rattus norvegicus, UniProt P35439+Q00960, A649T).
T2 construct: expressed in transfected cells; host or cells: HEK293
As to the kind of experiment: Whole-cell patch-clamp of GluN1(A649T)/GluN2B receptor responses in HEK293 cells. The test is classed as cell-based.
Excerpt: as §1, §2
(§4) Patch pipettes (3–5 MΩ) were filled with a solution containing (in mM): 120 gluconic acid, 15 CsCl, 10 BAPTA, 10 HEPES, 3 MgCl2, 1 CaCl2, and 2 ATP-Mg salt (pH-adjusted to 7.2 with CsOH). […]

The target in test [3] is T3, GluN1(V656A)/GluN2B receptors (Rattus norvegicus, UniProt P35439+Q00960, V656A).
T3 construct: expressed in transfected cells; host or cells: HEK293
As to the kind of experiment: Whole-cell patch-clamp of GluN1(V656A)/GluN2B receptor responses in HEK293 cells. The test is classed as cell-based.
Excerpt: as §1, §2, §4

Test [4] deals with T4, GluN1/GluN2B receptors (Rattus norvegicus, UniProt P35439+Q00960).
T4 construct: expressed in transfected cells; host or cells: HEK293
The arrangement: method as in PMID 22188257. Conditions: from −60 to +60 mV; cited from earlier work.

The target in test [5] is T4, GluN1/GluN2B receptors. As to the kind of experiment: Whole-cell patch-clamp of GluN1/GluN2B receptor responses in transfected HEK293 cells. The class given is cell-based.
Excerpt: as §1, §2, §3
Experiments were performed at room temperature (21–25 °C). Data were collected (low-pass filtered at 2 kHz and sampled at 10 kHz) and analyzed using pClamp 10 (Molecular Devices). Unless otherwise mentioned, error bars represent SEM; statistical comparison of groups was performed using Student’s t-test (p < 0.05 was used to determine the significance).
The IC50 was determined from a single dose of a steroid using the formula [drawing 1] where I is the relative degree of inhibition and [steroid] is the steroid concentration used. […]

The mark [6] stands for this setting: PA-A 20 μM, fit to the Boltzmann equation.
[7] abbreviates: PA-A 20 μM, fit to the Boltzmann equation, read-out: Kd(0 mV).

T2 sequence (Q00960 27-1482, other chains not shown): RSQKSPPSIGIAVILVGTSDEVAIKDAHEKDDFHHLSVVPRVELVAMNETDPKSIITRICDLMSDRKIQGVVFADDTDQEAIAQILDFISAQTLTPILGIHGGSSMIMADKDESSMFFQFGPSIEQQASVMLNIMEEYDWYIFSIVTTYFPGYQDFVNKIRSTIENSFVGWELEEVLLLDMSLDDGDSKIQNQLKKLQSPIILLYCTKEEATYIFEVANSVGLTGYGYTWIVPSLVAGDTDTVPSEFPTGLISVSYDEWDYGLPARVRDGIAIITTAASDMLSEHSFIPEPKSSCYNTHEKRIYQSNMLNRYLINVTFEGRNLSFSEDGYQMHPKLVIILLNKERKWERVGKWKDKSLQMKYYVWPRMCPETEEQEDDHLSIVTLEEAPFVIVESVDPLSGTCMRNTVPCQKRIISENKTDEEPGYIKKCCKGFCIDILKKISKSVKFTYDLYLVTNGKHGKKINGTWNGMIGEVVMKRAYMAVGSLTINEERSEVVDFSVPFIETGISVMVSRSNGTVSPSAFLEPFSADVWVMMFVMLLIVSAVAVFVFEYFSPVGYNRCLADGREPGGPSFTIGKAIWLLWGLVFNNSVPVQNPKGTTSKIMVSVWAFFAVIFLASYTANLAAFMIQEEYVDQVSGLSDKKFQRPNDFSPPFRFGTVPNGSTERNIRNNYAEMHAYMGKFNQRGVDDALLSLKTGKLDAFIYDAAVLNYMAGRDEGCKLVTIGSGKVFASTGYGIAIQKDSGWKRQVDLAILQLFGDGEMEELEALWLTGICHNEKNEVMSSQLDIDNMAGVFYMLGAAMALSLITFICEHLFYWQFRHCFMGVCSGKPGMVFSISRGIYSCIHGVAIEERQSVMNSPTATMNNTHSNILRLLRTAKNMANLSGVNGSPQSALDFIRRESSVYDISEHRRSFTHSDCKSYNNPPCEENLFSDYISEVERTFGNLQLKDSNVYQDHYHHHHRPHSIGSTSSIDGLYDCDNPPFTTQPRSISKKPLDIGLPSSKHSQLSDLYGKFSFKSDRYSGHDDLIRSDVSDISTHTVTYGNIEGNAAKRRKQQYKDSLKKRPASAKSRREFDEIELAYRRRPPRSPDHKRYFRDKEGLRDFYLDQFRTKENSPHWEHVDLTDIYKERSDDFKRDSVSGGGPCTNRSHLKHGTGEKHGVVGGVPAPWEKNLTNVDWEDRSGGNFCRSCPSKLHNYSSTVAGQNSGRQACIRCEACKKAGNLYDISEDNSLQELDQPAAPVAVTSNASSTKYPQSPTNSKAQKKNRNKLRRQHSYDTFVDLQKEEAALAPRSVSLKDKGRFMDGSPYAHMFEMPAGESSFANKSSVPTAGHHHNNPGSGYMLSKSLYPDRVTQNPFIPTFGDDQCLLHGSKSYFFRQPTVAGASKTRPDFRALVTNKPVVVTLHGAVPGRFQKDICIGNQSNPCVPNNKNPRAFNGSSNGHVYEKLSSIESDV
T4 sequence (Q00960 27-1482, other chains not shown): as above
T1 sequence (Q00960 27-1482, other chains not shown): as above

Take `N[C@H](CCCP(=O)(O)O)C(=O)O` [D-AP5, D-amino-5-phosphonopentanoic acid, reference compound]: the “sensitivity of spontaneous currents (absence of glutamate and glycine) to antagonist” value in test [1] is recorded as “only moderately sensitive”.

Turning to `O=C(O)c1cc(O)c2ccc(Cl)cc2n1` [7-CKA, 7-Cl-kynurenic acid, reference compound], the “sensitivity of spontaneous currents (absence of glutamate and glycine) to antagonist” value in test [1] is recorded as “only moderately sensitive”.

For the compound `CC(=O)C1CCC2C3CC[C@@H]4C[C@H](OC(=O)C[N+](C)(C)C)CC[C@]4(C)C3CC[C@]12C` (stereo partly drawn) [PA-A, 5β-pregnan-20-on 3α-yl-[(2-trimethylammonio)-ethanoate]], the “voltage dependence of steroid inhibition” value in test [2] is on record as “intermediate voltage dependence”; in test [3], “intermediate voltage dependence”; in test [1], “strongly voltage dependent”; on GluN1/GluN2B receptors [5] (WT GluN1/GluN2B), “weak voltage dependence”. Moreover, the “δ (apparent electrical distance of the binding site)” value in test [2] (setting [6]) is 0.23; in test [3] (fit to the Boltzmann equation), 0.19; in test [1] (setting [6]), 0.29; at GluN1/GluN2B receptors [5] (WT, PA-A 20 μM, fit to the Boltzmann equation), 0.15. For the same compound, the dissociation constant Kd (commonly the free concentration of one partner at which half of the binding sites on the other are occupied at equilibrium, for simple one-to-one binding) in test [2] (setting [7]) turned out to be 745 µM; in test [3] (fit to the Boltzmann equation, read-out: Kd(0 mV)), 193 µM; in test [1] (setting [7]), 340 µM; on GluN1/GluN2B receptors [5] (WT, PA-A 20 μM, fit to the Boltzmann equation, read-out: Kd(0 mV)) it was 335 µM. Also, the “voltage dependence of inhibition” value at GluN1/GluN2B receptors [4] is given as “voltage independent”. The mode of inhibition result at GluN1/GluN2B receptors [5] (dependence on receptor activation by agonists) is recorded as “use-dependent”.

Source of the values: article PMC4471902, “Block of NMDA receptor channels by endogenous neurosteroids: implications for the agonist induced conformational states of the channel vestibule” (Scientific Reports, 2015).
